The source made the active and inactive calls. No cut-off for these calls is given here. A value given as a limit tells only on which side of the number the result lay.

The record followed here is ChEMBL document CHEMBL5352429, “Designed symmetrical β-hairpin peptides for treating multidrug-resistant salmonella typhimurium infections” (Eur J Med Chem, 2022).

The subject of one series is RAW264.7. Description: Cytotoxicity against mouse RAW264.7 cells infected with Salmonella typhimurium DT104 assessed as cell viability at 1 times of MIC measured at 180 min by MTT assay. The conditions noted are these: raw264.7, 3 h. In kind it is toxicity, cell-based. A general note: Formazan colour is commonly taken as a measure of viable cells.
A further series deals with Erythrocyte. In words: Hemolytic activity in human Red blood cells assessed as hemolysis incubated for 1 hrs by absorbance based microplate reader analysis. It counts as toxicity, cell-based.
Series [1] relates to Salmonella enterica subsp. enterica serovar Paratyphi B. Description: Antibacterial activity against Salmonella paratyphi B CICC 21495 incubated overnight by standard microtiter dilution method. In kind it is functional.
Series [2] deals with Staphylococcus aureus. In words: Antibacterial activity against Staphylococcus aureus ATCC 29213 incubated overnight by standard microtiter dilution method. In kind it is functional.
The test system of series [3] is Salmonella enterica subsp. enterica serovar Paratyphi C. In words: Antibacterial activity against Salmonella paratyphi C CICC 21512 incubated overnight by standard microtiter dilution method. In kind it is functional.
Series [4] has as its system Salmonella typhimurium. In words: Antibacterial activity against multi-drug resistant Salmonella typhimurium DT104 infected in ICR mouse model assessed as fecal shedding of bacteria at 2 mg/kg, ip administered for 3 days and measured on day 7. It counts as functional, organism-based. The conditions noted are these: Salmonella enterica subsp. enterica serovar Typhimurium, time 7.0 day.

A further series deals with Salmonella paratyphi. In words: Antibacterial activity against Salmonella paratyphi A CICC 21501 incubated overnight by standard microtiter dilution method. In kind it is functional. The conditions noted are these: Salmonella enterica subsp. enterica serovar Paratyphi A.
In another series the test system is Enterococcus faecalis. In words: Antibacterial activity against Enterococcus faecalis ATCC 29212 incubated overnight by standard microtiter dilution method. It counts as functional.
Series [5] concerns Salmonella enterica subsp. enterica serovar Dublin. In words: Antibacterial activity against Salmonella dublin CICC 21497 incubated overnight by standard microtiter dilution method. It counts as functional.
The subject of series [6] is Salmonella enterica subsp. enterica serovar Blockley. Description: Antibacterial activity against Salmonella blockley CICC 21489 incubated overnight by standard microtiter dilution method. It counts as functional.
In series [7] the test system is Salmonella typhimurium. In words: Antibacterial activity against multi-drug resistant Salmonella typhimurium DT104 infected in ICR mouse model assessed as reversal of body weight loss at 2 mg/kg, ip administered for 3 days and measured on day 7. The conditions noted are these: Salmonella enterica subsp. enterica serovar Typhimurium, time 7.0 day. In kind it is functional, organism-based.

The subject of a further series is Salmonella enteritidis. In words: Antibacterial activity against Salmonella enteritidis CICC 21527 incubated overnight by standard microtiter dilution method. In kind it is functional. The conditions noted are these: Salmonella enterica subsp. enterica serovar Enteritidis.
The test system of series [8] is Salmonella enterica subsp. enterica serovar Choleraesuis. Description: Antibacterial activity against Salmonella enterica subsp. enterica serovar Choleraesuis CICC 21493 incubated overnight by standard microtiter dilution method. In kind it is functional.
Series [9] deals with Staphylococcus epidermidis. In words: Antibacterial activity against methicillin-resistant Staphylococcus epidermidis ATCC 12228 incubated overnight by standard microtiter dilution method. It counts as functional.
Series [10] has as its system Salmonella enterica subsp. enterica serovar Wandsworth. In words: Antibacterial activity against Salmonella wandsworth CICC 21504 incubated overnight by standard microtiter dilution method. In kind it is functional.
The test system of series [11] is Salmonella typhimurium. Description: Antibacterial activity against Salmonella typhimurium DT104 ATCC 700408 incubated overnight by standard microtiter dilution method. It counts as functional. The conditions noted are these: Salmonella enterica subsp. enterica serovar Typhimurium.
Series [12] concerns Salmonella typhimurium. Description: Antibacterial activity against multi-drug resistant Salmonella typhimurium DT104 infected in ICR mouse model assessed as reversal of mouse vigour loss at 2 mg/kg, ip administered for 3 days and measured on day 7. The conditions noted are these: Salmonella enterica subsp. enterica serovar Typhimurium, time 7.0 day. It counts as functional, organism-based.

For series [13], the system named is Salmonella typhimurium. Description: Antibacterial activity against Salmonella typhimurium CICC 21913 incubated overnight by standard microtiter dilution method. It counts as functional. The conditions noted are these: Salmonella enterica subsp. enterica serovar Typhimurium.
Another series concerns Lipopolysaccharide (LPS). Description: Displacement of BODIPY-TR-cadaverine from Salmonella typhimurium LPS assessed as increase in fluorescence intensity by fluorescence spectrophotometric analysis. The conditions noted are these: Salmonella enterica subsp. enterica serovar Typhimurium; dose 0.25-8 µg/ml.
Series [14] deals with Salmonella typhimurium. In words: Antibacterial activity against multi-drug resistant Salmonella typhimurium DT104 infected in ICR mouse model assessed as reversal of mouse vitality loss at 2 mg/kg, ip administered for 3 days and measured on day 7. In kind it is functional, organism-based. The conditions noted are these: Salmonella enterica subsp. enterica serovar Typhimurium, time 7.0 day.

For series [15], the system named is Salmonella enterica subsp. enterica serovar Choleraesuis. In words: Antibacterial activity against Salmonella enterica subsp. enterica serovar Choleraesuis ATCC 13312 incubated overnight by standard microtiter dilution method. It counts as functional.
The subject of series [16] is Salmonella typhimurium. In words: Antibacterial activity against Salmonella typhimurium CICC 21483 incubated overnight by standard microtiter dilution method. In kind it is functional. The conditions noted are these: Salmonella enterica subsp. enterica serovar Typhimurium.
The subject of series [17] is Staphylococcus aureus. Description: Antibacterial activity against methicillin-resistant Staphylococcus aureus ATCC 43300 incubated overnight by standard microtiter dilution method. In kind it is functional.
A further series has as its system Escherichia coli. Description: Antibacterial activity against Escherichia coli O157:H7 CICC 21530 incubated overnight by standard microtiter dilution method. In kind it is functional.
The next series relates to Candida albicans. Description: Antifungal activity against Candida albicans ATCC 10231 incubated overnight by standard microtiter dilution method. In kind it is functional.

For POLYMYXIN B [listing 1 of 2 here], the Activity in the series on RAW264.7 is above 90%. For the same sequence, the MHC in the series on Erythrocyte is above 128 µg/mL.

Usually MIC stands for the lowest concentration found to suppress growth. Higher therefore signals weaker potency. POLYMYXIN B [listing 2 of 2 here]: the MIC in series [1] came out at 2 µg/mL; with Staphylococcus aureus [2], 64 µg/mL; in series [3], 2 µg/mL; with Salmonella paratyphi, 4 µg/mL; in the series on Enterococcus faecalis, 128 µg/mL; in series [5], 2 µg/mL. The MIC in series [6] amounted to 1 µg/mL; in the series on Salmonella enteritidis it was 2 µg/mL; in series [8], 4 µg/mL; in [9], 4 µg/mL; in [10] it was 1 µg/mL; against Salmonella typhimurium [11], 4 µg/mL. Moreover, the MIC against Salmonella typhimurium [13] was 2 µg/mL; in [15], 1 µg/mL; in the series on Salmonella typhimurium [16], 2 µg/mL; against Staphylococcus aureus [17], above 128 µg/mL; against Escherichia coli, 32 µg/mL; with Candida albicans, 64 µg/mL. In addition, the result in the series with Salmonella typhimurium [4], in the series on Salmonella typhimurium [7], in the series with Salmonella typhimurium [12] and with Salmonella typhimurium [14] was inactive. In the series on Lipopolysaccharide (LPS), the Activity entry is “Dose-Dependent Effect”.
